From the supplement of paper PMC8671470
± gives the standard deviation of the averaged measurements.

The molecules below were run on HL-60 (assay: cell viability (% survival relative to DMSO control); higher = less cytotoxic). Conditions: 1 µM; 72 h; co-treatment: AZD3965 100 nM.
Summary of the method: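 For each screen, HL-60 cells in RPMI 1640 with 10% FBS carried either DMSO or 100 nM of one of three metabolic inhibitors while the full library was applied at five tenfold concentrations, 1–10,000 nM, in duplicate. Plates were 384-well and were kept 72 h at 37 °C, 5% CO2. Viability, measured by CellTiter-Glo, was normalised to wells with DMSO and with 10 μM proteasome inhibitor. Where area under the curve appears, it was fitted by four-parameter log-logistic models in drc and PharmacoGx.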

`OC[C@H]1OC(O)C[C@@H](O)[C@@H]1O` (stereo not given in full) [2-deoxyglucose] and `CC(=O)N[C@@H](CS)C(=O)O` [Acetylcysteine] are within error of each other in cell viability: 103.1 ± 0.65% for the first, 102 ± 6.2% for the second.

`O=C(C(=O)c1ccc(Br)cc1)c1ccc(Br)cc1` [4,4'-Dibromobenzil] and `NS(=O)(=O)c1ccc(NC(=O)Cc2ccccc2)cc1` [4-(2-Phenylacetamido)Benzenesulfonamide] are within error of each other in cell viability: 94.7 ± 14% for the first, 101 ± 3.1% for the second.

`NCc1ccc(S(N)(=O)=O)cc1` [4-Homosulfanilamide] and `NCc1ccc(-c2cccnc2)s1` [(5-Pyrid-3-YLTHIEN-2-YL)METHYLAMINE] are within error of each other in cell viability: 95.9 ± 1.2% for the first, 97 ± 1% for the second.

`Oc1ncc(F)c(O)n1` [5-fluorouracil] and `CCCCC/C=C\C/C=C\C/C=C\C/C=C\CCCC(=O)C(F)(F)F` [Arachidonyl trifluoromethyl ketone] are within error of each other in cell viability: 102.9 ± 0.25% for the first, 91.8 ± 20% for the second.

With `O=[As]O[As]=O` (stereo not given) [Arsenic trioxide] the cell viability was 102 ± 4%.

Same assay, conditions: 1 µM; 72 h; co-treatment: DMSO vehicle

Going from `CC(=O)N1CCN(c2ccc(OC[C@@H]3CO[C@@](Cn4ccnc4)(c4ccc(Cl)cc4Cl)O3)cc2)CC1` (racemic) [Ketoconazole] to `CCC(CC#N)OC(=O)N[C@@H](C)c1cccc(NC(=O)Nc2ccc(-c3cnco3)c(OC)c2)c1` (stereo in doubt) [AVN-944], the cell viability falls from 104 ± 0.52% to 50 ± 5.5%.

`OC[C@H]1OC(O)C[C@@H](O)[C@@H]1O` (stereo not given in full) [2-deoxyglucose] and `CC(=O)N[C@@H](CS)C(=O)O` [Acetylcysteine] are within error of each other in cell viability: 103.5 ± 0.84% for the first, 96.1 ± 8.7% for the second.

`O=C(C(=O)c1ccc(Br)cc1)c1ccc(Br)cc1` [4,4'-Dibromobenzil] and `NS(=O)(=O)c1ccc(NC(=O)Cc2ccccc2)cc1` [4-(2-Phenylacetamido)Benzenesulfonamide] are within error of each other in cell viability: 96.7 ± 0.99% for the first, 100 ± 2.9% for the second.

`NCc1ccc(S(N)(=O)=O)cc1` [4-Homosulfanilamide] and `NCc1ccc(-c2cccnc2)s1` [(5-Pyrid-3-YLTHIEN-2-YL)METHYLAMINE] are within error of each other in cell viability: 101 ± 2.8% for the first, 92.7 ± 13% for the second.

`Oc1ncc(F)c(O)n1` [5-fluorouracil] and `CCCCC/C=C\C/C=C\C/C=C\C/C=C\CCCC(=O)C(F)(F)F` [Arachidonyl trifluoromethyl ketone] are within error of each other in cell viability: 102 ± 3% for the first, 101 ± 7.4% for the second.

`O=[As]O[As]=O` (stereo not given) [Arsenic trioxide] showed a cell viability of 100.5 ± 0.47%.

Same assay, conditions: 1 µM; 72 h; co-treatment: GSK2194069 100 nM

Compared with `CC(=O)N1CCN(c2ccc(OC[C@@H]3CO[C@@](Cn4ccnc4)(c4ccc(Cl)cc4Cl)O3)cc2)CC1` (racemic) [Ketoconazole], `CCC(CC#N)OC(=O)N[C@@H](C)c1cccc(NC(=O)Nc2ccc(-c3cnco3)c(OC)c2)c1` (stereo in doubt) [AVN-944] is lower in cell viability: 110 ± 14% for the first, 53 ± 4.7% for the second.

`OC[C@H]1OC(O)C[C@@H](O)[C@@H]1O` (stereo not given in full) [2-deoxyglucose] and `CC(=O)N[C@@H](CS)C(=O)O` [Acetylcysteine] are the same in cell viability: 101 ± 5% for the first, 101 ± 4.8% for the second.

`O=C(C(=O)c1ccc(Br)cc1)c1ccc(Br)cc1` [4,4'-Dibromobenzil] and `NS(=O)(=O)c1ccc(NC(=O)Cc2ccccc2)cc1` [4-(2-Phenylacetamido)Benzenesulfonamide] are within error of each other in cell viability: 98.1 ± 5.3% for the first, 99.4 ± 2.3% for the second.

`NCc1ccc(S(N)(=O)=O)cc1` [4-Homosulfanilamide] and `NCc1ccc(-c2cccnc2)s1` [(5-Pyrid-3-YLTHIEN-2-YL)METHYLAMINE] are within error of each other in cell viability: 96.9 ± 4.6% for the first, 95.1 ± 2.1% for the second.

`Oc1ncc(F)c(O)n1` [5-fluorouracil] and `CCCCC/C=C\C/C=C\C/C=C\C/C=C\CCCC(=O)C(F)(F)F` [Arachidonyl trifluoromethyl ketone] are within error of each other in cell viability: 100 ± 5.7% for the first, 89.7 ± 8.5% for the second.

For `O=[As]O[As]=O` (stereo not given) [Arsenic trioxide], the cell viability was 99.11 ± 0.97%.

Same assay, conditions: 1 µM; 72 h; co-treatment: pictilisib 100 nM

First: CC(=O)N1CCN(c2ccc(OC[C@@H]3CO[C@@](Cn4ccnc4)(c4ccc(Cl)cc4Cl)O3)cc2)CC1 (racemic) [Ketoconazole]
Second: CCC(CC#N)OC(=O)N[C@@H](C)c1cccc(NC(=O)Nc2ccc(-c3cnco3)c(OC)c2)c1 (stereo in doubt) [AVN-944]
The cell viability of the first is higher: 111 ± 10% for the first, 48.9 ± 4.2% for the second.

`OC[C@H]1OC(O)C[C@@H](O)[C@@H]1O` (stereo not given in full) [2-deoxyglucose] and `CC(=O)N[C@@H](CS)C(=O)O` [Acetylcysteine] are within error of each other in cell viability: 104 ± 1.2% for the first, 101 ± 7.9% for the second.

`O=C(C(=O)c1ccc(Br)cc1)c1ccc(Br)cc1` [4,4'-Dibromobenzil] and `NS(=O)(=O)c1ccc(NC(=O)Cc2ccccc2)cc1` [4-(2-Phenylacetamido)Benzenesulfonamide] are within error of each other in cell viability: 98.3 ± 17% for the first, 97.6 ± 1.9% for the second.

`NCc1ccc(S(N)(=O)=O)cc1` [4-Homosulfanilamide] and `NCc1ccc(-c2cccnc2)s1` [(5-Pyrid-3-YLTHIEN-2-YL)METHYLAMINE] are within error of each other in cell viability: 95.5 ± 8.2% for the first, 92.2 ± 5.2% for the second.

`Oc1ncc(F)c(O)n1` [5-fluorouracil] and `CCCCC/C=C\C/C=C\C/C=C\C/C=C\CCCC(=O)C(F)(F)F` [Arachidonyl trifluoromethyl ketone] are within error of each other in cell viability: 96.5 ± 4.7% for the first, 81.4 ± 45% for the second.

With `O=[As]O[As]=O` (stereo not given) [Arsenic trioxide] the cell viability was 98.5 ± 6.7%.

Same assay, conditions: 10 µM; 72 h; co-treatment: AZD3965 100 nM

Going from `CC(=O)N1CCN(c2ccc(OC[C@@H]3CO[C@@](Cn4ccnc4)(c4ccc(Cl)cc4Cl)O3)cc2)CC1` (racemic) [Ketoconazole] to `CCC(CC#N)OC(=O)N[C@@H](C)c1cccc(NC(=O)Nc2ccc(-c3cnco3)c(OC)c2)c1` (stereo in doubt) [AVN-944], the cell viability falls from 96.1 ± 8.6% to 8.09 ± 1.1%.

Compared with `OC[C@H]1OC(O)C[C@@H](O)[C@@H]1O` (stereo not given in full) [2-deoxyglucose], `CC(=O)N[C@@H](CS)C(=O)O` [Acetylcysteine] is lower in cell viability: 103 ± 3.5% for the first, 91.6 ± 1% for the second.

`O=C(C(=O)c1ccc(Br)cc1)c1ccc(Br)cc1` [4,4'-Dibromobenzil] and `NS(=O)(=O)c1ccc(NC(=O)Cc2ccccc2)cc1` [4-(2-Phenylacetamido)Benzenesulfonamide] are within error of each other in cell viability: 102 ± 3.9% for the first, 99.6 ± 2.4% for the second.

`NCc1ccc(S(N)(=O)=O)cc1` [4-Homosulfanilamide] and `NCc1ccc(-c2cccnc2)s1` [(5-Pyrid-3-YLTHIEN-2-YL)METHYLAMINE] are within error of each other in cell viability: 99.2 ± 4.8% for the first, 101 ± 1.1% for the second.

Going from `Oc1ncc(F)c(O)n1` [5-fluorouracil] to `CCCCC/C=C\C/C=C\C/C=C\C/C=C\CCCC(=O)C(F)(F)F` [Arachidonyl trifluoromethyl ketone], the cell viability rises from 55 ± 2.8% to 98.3 ± 6.5%.

`O=[As]O[As]=O` (stereo not given) [Arsenic trioxide] gave a cell viability of 82.7 ± 1.2%.

Same assay, conditions: 10 µM; 72 h; co-treatment: DMSO vehicle

First: CC(=O)N1CCN(c2ccc(OC[C@@H]3CO[C@@](Cn4ccnc4)(c4ccc(Cl)cc4Cl)O3)cc2)CC1 (racemic) [Ketoconazole]
Second: CCC(CC#N)OC(=O)N[C@@H](C)c1cccc(NC(=O)Nc2ccc(-c3cnco3)c(OC)c2)c1 (stereo in doubt) [AVN-944]
The cell viability of the first is higher: 102.6 ± 0.17% for the first, 12.9 ± 2.1% for the second.

`OC[C@H]1OC(O)C[C@@H](O)[C@@H]1O` (stereo not given in full) [2-deoxyglucose] and `CC(=O)N[C@@H](CS)C(=O)O` [Acetylcysteine] are within error of each other in cell viability: 97.27 ± 0.73% for the first, 93.7 ± 4.5% for the second.

Going from `O=C(C(=O)c1ccc(Br)cc1)c1ccc(Br)cc1` [4,4'-Dibromobenzil] to `NS(=O)(=O)c1ccc(NC(=O)Cc2ccccc2)cc1` [4-(2-Phenylacetamido)Benzenesulfonamide], the cell viability falls from 101 ± 1.3% to 98.28 ± 0.14%.

`NCc1ccc(S(N)(=O)=O)cc1` [4-Homosulfanilamide] and `NCc1ccc(-c2cccnc2)s1` [(5-Pyrid-3-YLTHIEN-2-YL)METHYLAMINE] are within error of each other in cell viability: 96.4 ± 2% for the first, 98.43 ± 0.59% for the second.

Going from `Oc1ncc(F)c(O)n1` [5-fluorouracil] to `CCCCC/C=C\C/C=C\C/C=C\C/C=C\CCCC(=O)C(F)(F)F` [Arachidonyl trifluoromethyl ketone], the cell viability rises from 76.1 ± 2.4% to 101 ± 1.2%.

`O=[As]O[As]=O` (stereo not given) [Arsenic trioxide] showed a cell viability of 96.7 ± 6.6%.

Same assay, conditions: 10 µM; 72 h; co-treatment: GSK2194069 100 nM

Molecule `CC(=O)N1CCN(c2ccc(OC[C@@H]3CO[C@@](Cn4ccnc4)(c4ccc(Cl)cc4Cl)O3)cc2)CC1` (racemic) [Ketoconazole] has a cell viability of 95.6 ± 2.4%.
